# Data from article PMC6934184, “Selective DNA-PKcs inhibition extends the therapeutic index of localized radiotherapy and chemotherapy” (The Journal of Clinical Investigation, 2019).
# Target: T1, PRKCB1 (PKC beta I) (Homo sapiens, UniProt P05771)
# T1 construct: purchased Thermo Fisher Scientific (Life Technologies) SelectScreen
# Experiment: SelectScreen Z'LYTE
# Assay type: biochemical
# Procedure, shortened: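 NU5455 was profiled across the SelectScreen Broad panel of kinase activity and binding assays. Z'LYTE reactions such as CSF1R ran at apparent Km ATP, while the Adapta CAMK1 assay used ATP listed as 10. Values are given as percent.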
# T1 sequence (P05771 whole entry): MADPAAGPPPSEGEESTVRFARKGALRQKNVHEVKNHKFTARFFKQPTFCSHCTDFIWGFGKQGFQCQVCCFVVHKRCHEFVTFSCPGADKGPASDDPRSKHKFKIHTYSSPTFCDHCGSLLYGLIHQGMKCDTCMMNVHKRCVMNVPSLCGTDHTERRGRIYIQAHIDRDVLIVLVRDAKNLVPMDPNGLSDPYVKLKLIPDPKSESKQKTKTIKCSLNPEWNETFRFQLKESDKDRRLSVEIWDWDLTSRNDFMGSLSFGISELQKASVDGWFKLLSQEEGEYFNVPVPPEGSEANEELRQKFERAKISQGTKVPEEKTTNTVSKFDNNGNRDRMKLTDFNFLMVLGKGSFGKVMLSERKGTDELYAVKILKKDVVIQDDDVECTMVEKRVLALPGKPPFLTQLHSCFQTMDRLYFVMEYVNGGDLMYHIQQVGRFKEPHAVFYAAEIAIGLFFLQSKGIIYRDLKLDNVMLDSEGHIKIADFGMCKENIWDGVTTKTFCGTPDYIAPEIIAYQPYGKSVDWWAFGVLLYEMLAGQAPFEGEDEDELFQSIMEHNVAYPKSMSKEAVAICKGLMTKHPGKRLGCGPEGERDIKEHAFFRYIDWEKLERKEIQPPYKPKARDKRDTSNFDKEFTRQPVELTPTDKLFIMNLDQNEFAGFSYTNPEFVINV
compound,measurement,value
CN(C(=O)CN1CCOCC1)c1ccc2sc3c(-c4cccc5c(=O)cc(N6CC7CCC(C6)O7)oc45)cccc3c2c1 [NU5455],inhibition at 1 µM,-0.7%
